Entries after “also recorded” stand apart in the source; their conditions may differ.
Tests used:
consumers [1] = assay: Paired consumer tasting of beverages with 0.05% Stevia SG95 with or without 1,3-propanediol (Example 1); type: in vivo, human
Protocol: Beverage samples were prepared to evaluate the effect of the level of 1,3-propanediol on Stevia. The beverages were prepared just prior to testing using water and the ingredients according to Table 1 below.
Four pairs of beverages were evaluated by consumers in one sitting. The order of evaluating the pairs of products was blocked so that the highest level of 1,3-propanediol (sample 4) was always served as the first pair of beverages along with its corresponding control. The order of evaluating the beverage samples within pairs was rotated. There was a timed five minute break between pairs. Water and unsalted crackers were used as a palate cleanser before tasting each beverage and between beverage pairs. The beverages were prepared at the facility prior to the onset of test using water along with the designated solutions.
The stevia used was SG95 from PureCircle. SG95 is a high purity combination (>95% steviol glycosides) of nine steviol glycosides. Reb A accounts for over half of the composition but also includes Rebaudioside D and Rebaudioside F. SG95 is 230 times sweeter than sugar.
The samples were tasted by consumers between 21-55 years of age who consume diet beverages at least once per month and are non-rejectors of flavored beverages. The consumers had no allergies or sensitivities to beverages or sweeteners, including artificial sweeteners.

tasters [2] = assay: Paired taster test: which sample is more bitter, 0.25% KCl in water with or without 1,3-propanediol (Example 2); type: in vivo, human
Protocol: A 0.25% KCl in water solution was prepared and test samples were dosed with the appropriate amount of 1,3-propanediol according to Table 2 below. One ounce samples of each solution were prepared. The tasters received a pair (one blank and one dosed sample) and asked to rate which sample was more bitter. The scores in Table 2 are the number of tasters that chose that sample as being more bitter.

consumers [3] = assay: Paired consumer tasting of beverages with 0.25% KCl with or without 1,3-propanediol (Example 3); type: in vivo, human
Protocol: Beverage samples were prepared to evaluate the effect of the level of 1,3-propanediol on KCl. The samples were tasted by consumers between 21-55 years of age with no allergies or sensitivities to food or beverages or ingredients.
(§1) On day 1 of testing, consumers were given two samples, one a 0.25% KCl solution and the other water, and asked “Which beverage is more bitter?” This was replicated a total of three times to obtain four different trials. Order within the pair was rotated. Those who selected the KCl sample at least three times across the four trials were classified as “KCl sensitive.” Consumers then evaluated three more pairs of samples with varying levels of 1,3-propanediol with KCl versus a standard control (no 1,3-propanediol) as outlined in Table 3 below.
(§2) After the first day of testing, it was determined the number of KCl Bitterness Sensitive consumers may have been overstated. It was hypothesized that respondents could detect differences between plain water and water containing KCl, such as saltiness, but may not have been perceiving bitterness. Therefore, a second bitterness sensitivity test was conducted on day 2 using three pairs of a KCl solution (0.25%) versus a NaCl solution (0.15%) in an attempt to have the solutions iso-salty. Two new levels of Zemea were evaluated along with KCl versus a standard control as outlined in Table 3 below.
The order of evaluating the beverage samples within pairs were rotated (left/right). The order of evaluating the pairs of products was blocked so the highest level of 1,3-propanediol was always served as the first pair of beverages along with its control. There was a timed 5 minute break between pairs. Water and unsalted crackers were used as a palate cleanser before tasting each beverage and between beverage pairs.

tasters [4] = assay: Triangle test for detecting 1,3-propanediol at low concentration (Example 4); type: in vivo, human; conditions: for tasters who could identify the 1,3-propanediol in a triangle test: four tasters
Protocol: Samples A-D were prepared according to Table 4 below to analyze and determine if 1,3-propanediol imparted any flavor when used at low concentrations. The samples were evaluated by a team of four tasters.
Samples A and B were compared.

panelists = assay: Panel assessment of Reb A beverage with or without 1,3-propanediol (Example 5); type: in vivo, human; conditions: Sample H versus Sample G
Protocol: Samples were prepared to analyze the effect of 1,3-propanediol with sweeteners such as Reb A. Samples G and H were prepared as shown in Table 5 below.
Nine panelists compared the samples. Panelists rinsed prior to tasting the samples and in between sample assessment with seltzer, unsalted crackers and water with a one-minute break between samples. Samples were assessed on the second sip. The results are shown below in Table 6 with the comments indicating the order of what was tasted in each of the samples (Scale: 0-15=None to Extreme).

tasters [5] = assay: Taster evaluation with acetic acid (Example 7); type: in vivo, human; conditions: 0.05 percent acetic acid in water; none, 0.3 percent 1,3-propanediol or 0.3 percent propylene glycol; three tasters
Protocol: Samples were prepared to evaluate the effect of inclusion of 1,3-propanediol with acetic acid. Sample M included 0.05 percent acetic acid in water, Sample N included 0.05 percent acetic acid in water with 0.3 percent 1,3-propanediol, and Sample O included 0.05 percent acetic acid in water with 0.3 percent propylene glycol. The samples were evaluated by a team of three tasters.

tasters [6] = assay: Taster evaluation with 1% citric acid (Example 9); type: in vivo, human; conditions: 1 weight percent citric acid in water; 0.3 weight percent propylene glycol (V), none (W) or 1,3-propanediol (X); four tasters
Protocol: Samples were prepared to evaluate the effect of including 1,3-propanediol with a higher concentration of citric acid than in Example 8. Sample V included 1 weight percent citric acid and 0.3 weight percent propylene glycol in water. Sample W included 1 weight percent citric acid in water. Sample X included 1 weight percent citric acid in water with 0.3 weight percent 1,3-propanediol. The samples were then evaluated by a team of four tasters.

tasters [7] = assay: Taster evaluation with malic acid (Example 10); type: in vivo, human; conditions: 1 weight percent malic acid in water; 0.3 weight percent 1,3-propanediol (Y), propylene glycol (Z) or none (AA)
Protocol: Samples were prepared to evaluate the effect of including 1,3-propanediol with malic acid. Sample Y included 1 weight percent malic acid with 0.3 weight percent 1,3-propanediol in water. Sample Z included 1 weight percent malic acid and 0.3 weight percent propylene glycol in water. Sample AA included 1 weight percent malic acid in water.

tasters [8] = assay: Taster evaluation with earl grey tea (Example 11); type: in vivo, human; conditions: steeped earl grey tea; 0.3 weight percent 1,3-propanediol (AB), none (AC) or propylene glycol (AD); four tasters
Protocol: Samples were prepared to evaluate the effect of including 1,3-propanediol with tea. Six earl grey tea bags were combined with 250 ml of water for 30 minutes. Sample AB included 0.3 weight percent 1,3-propanediol in the steeped tea and Sample AD included 0.3 weight percent propylene glycol in the steeped tea. Sample AC was a tea only control. The samples were evaluated by a team of four tasters.

tasters [9] = assay: Taster evaluation with Robusta instant coffee (Example 12); type: in vivo, human; conditions: 1 weight percent Robusta instant coffee in water; 0.3 weight percent propylene glycol (AE), none (AF) or 1,3-propanediol (AG)
Protocol: Samples were prepared to evaluate the effect of including 1,3-propanediol with coffee. Robusta instant coffee was prepared with 1 weight percent coffee in water. Sample AE included 0.3 weight percent propylene glycol in the prepared coffee. Sample AF was a coffee only control. Sample AG included 0.3 weight percent 1,3-propanediol in the prepared coffee.

tasters [10] = assay: Bitterness perception with potassium chloride, taster panel (Example 6); conditions: 0.3% KCl in water; 0.3% 1,3-propanediol, none or 0.3% propylene glycol; five tasters
consumers [11] = assay: KCl bitterness sensitivity test (Example 3); type: in vivo, human
Source text: as §1, §2

[12] = first round, Pair 1: 0.0019 percent 1,3-propanediol with 0.05% Stevia SG95
[13] = first round, Pair 2: 0.0075 percent 1,3-propanediol with 0.05% Stevia SG95
[14] = second round, Pair 2: 0.000005 percent 1,3-propanediol with 0.05% Stevia SG95
[15] = second round, Pair 4: 0.0005 percent 1,3-propanediol with 0.05% Stevia SG95
[16] = 0.000005 ppm 1,3-propanediol in 0.25% KCl in water
[17] = 0.00005 ppm 1,3-propanediol in 0.25% KCl in water
[18] = 0.005 ppm 1,3-propanediol in 0.25% KCl in water
[19] = 0.05 ppm 1,3-propanediol in 0.25% KCl in water
[20] = 0.5 ppm 1,3-propanediol in 0.25% KCl in water
[21] = 5 ppm 1,3-propanediol in 0.25% KCl in water
[22] = 50 ppm 1,3-propanediol in 0.25% KCl in water
[23] = 100 ppm 1,3-propanediol in 0.25% KCl in water
[24] = 500 ppm 1,3-propanediol in 0.25% KCl in water
[25] = 5000 ppm 1,3-propanediol in 0.25% KCl in water
[26] = about 0.0005% 1,3-propanediol with 0.25% KCl, consumers (general population), FIG. 4

OCCCO [1,3-propanediol]
Stevia bitterness versus control (consumers [1]; [12]): significantly less Stevia bitterness | more mouth drying, longer lasting aftertaste and sweetness versus control (consumers [1]; [12]): Neither the control nor the experimental sample of Pair 1 demonstrated significantly | sweetness versus control (consumers [1]; [12]): fell short on being sweeter than control | all other attributes versus control (consumers [1]; [13]): selected about equally | mouth drying versus control (consumers [1]; [13]): significantly more “mouth drying” | attributes versus control (consumers [1]; first round, Pair 3: 0.0150 percent 1,3-propanediol with 0.05% Stevia SG95): no statistical differences in attributes | attributes versus control (consumers [1]; first round, Pair 4: 0.03 percent 1,3-propanediol (text; Table 1 prints 0.3%) with 0.05% Stevia SG95): no statistical differences in attributes | bitterness versus control (consumers [1]; first round, Pair 4 level of 1,3-propanediol with 0.05% Stevia SG95): numerically more bitterness | attributes versus control (consumers [1]; second round, Pair 1: 0.0000005 percent 1,3-propanediol with 0.05% Stevia SG95): no statistical differences in attributes | aftertaste compared to control (consumers [1]; [14]): significantly longer lasting aftertaste | all other attributes versus control (consumers [1]; [14]): selected about equally | attributes versus control (consumers [1]; second round, Pair 3: 0.00005 percent 1,3-propanediol with 0.05% Stevia SG95): no statistical differences in attributes | bitterness compared to control (consumers [1]; [15]): significantly less bitterness | sweetness compared to control (consumers [1]; [15]): more sweetness; also recorded: significantly sweeter versus control | % of tasters that chose the control as more bittter (tasters [2]; [16]): 63% | number of tasters that chose the 1,3-Propanediol sample as being more bitter (tasters [2]; [16]): 3 | % of tasters that chose the control as more bittter (tasters [2]; [17]): 63% | number of tasters that chose the 1,3-Propanediol sample as being more bitter (tasters [2]; [17]): 3 | % of tasters that chose the control as more bittter (tasters [2]; 0.0005 ppm 1,3-propanediol in 0.25% KCl in water): 100% | % of tasters that chose the control as more bittter (tasters [2]; [18]): 50% | number of tasters that chose the 1,3-Propanediol sample as being more bitter (tasters [2]; [18]): 4 | % of tasters that chose the control as more bittter (tasters [2]; [19]): 75% | number of tasters that chose the 1,3-Propanediol sample as being more bitter (tasters [2]; [19]): 2 | % of tasters that chose the control as more bittter (tasters [2]; [20]): 63% | number of tasters that chose the 1,3-Propanediol sample as being more bitter (tasters [2]; [20]): 3 | % of tasters that chose the control as more bittter (tasters [2]; [21]): 63% | number of tasters that chose the 1,3-Propanediol sample as being more bitter (tasters [2]; [21]): 3 | % of tasters that chose the control as more bittter (tasters [2]; [22]): 75% | number of tasters that chose the 1,3-Propanediol sample as being more bitter (tasters [2]; [22]): 2 | % of tasters that chose the control as more bittter (tasters [2]; [23]): 75% | number of tasters that chose the 1,3-Propanediol sample as being more bitter (tasters [2]; [23]): 2 | % of tasters that chose the control as more bittter (tasters [2]; [24]): 75% | number of tasters that chose the 1,3-Propanediol sample as being more bitter (tasters [2]; [24]): 2 | % of tasters that chose the control as more bittter (tasters [2]; [25]): 13% | number of tasters that chose the 1,3-Propanediol sample as being more bitter (tasters [2]; [25]): 7 | taste of 1,3-propanediol itself (tasters [2]; 5000 ppm sample in 0.25% KCl in water): the bitterness of the 1,3-propanediol was apparent | sweetness, statistical significance (consumers [3]; 0.0005 percent 1,3-propanediol with 0.25% KCl, non-KCl sensitive consumers): statistically significant increase in sweetness | reduced bitterness and increased sweetness (consumers [3]; about 0.0005% 1,3-propanediol with 0.25% KCl, KCl sensitive consumers, FIG. 5): also found in the KCl sensitive consumers (FIG. 5), although to a less dramatic extent | bitterness (consumers [3]; [26]): reduced bitterness | sweetness (consumers [3]; [26]): increased sweetness | tasters who could identify the 1,3-propanediol in a triangle test (tasters [4]; Samples A and B: 0.14% 1,3-propanediol in water): one | tasters who could identify the 1,3-propanediol in a triangle test (tasters [4]; Samples C and D: 0.14% 1,3-propanediol in water with 10% sucrose): one | detectability at low levels (tasters [4]; water or sucrose sweetened beverages): generally not detectable at low levels | effect on flavor profile with Reb A (panelists): general shift in bitter and sour flavor profiles | sourness as indicated by the tasters (tasters [5]): increases the sourness compared to water when combined with acetic acid | sourness as indicated by the tasters (tasters [6]): increased sourness perception when combined with citric acid | sourness as indicated by the tasters (tasters [7]): more sour upfront but less lingering | other flavor notes / flavor profile as indicated by the tasters (tasters [8]): sour, bitter, and astringent characteristics all changed | bitterness as indicated by the tasters (tasters [9]): less bitter than without 1,3-propanediol | bitterness as indicated by the tasters (tasters [10]): functioned to suppress bitterness when used with potassium chloride

[Cl-].[K+] [KCl, potassium chloride]
share of “KCl sensitive” consumers (consumers [11]; day 1: 0.25% KCl solution versus water): 67% | share of “KCl sensitive” consumers (consumers [11]; day 2: KCl solution (0.25%) versus NaCl solution (0.15%)): 53%
